Each structure is given as a SMILES string. pIC50: −log10 of the molar value.

What all share (assay type): biochemical
One experiment deals with T1, human PLK4 (Homo sapiens, UniProt O00444).
T1 construct: amino terminal GST fusion of residues 1-391 of human PLK4; made in house; host or cells: E. coli
T1 sequence (O00444 1-391): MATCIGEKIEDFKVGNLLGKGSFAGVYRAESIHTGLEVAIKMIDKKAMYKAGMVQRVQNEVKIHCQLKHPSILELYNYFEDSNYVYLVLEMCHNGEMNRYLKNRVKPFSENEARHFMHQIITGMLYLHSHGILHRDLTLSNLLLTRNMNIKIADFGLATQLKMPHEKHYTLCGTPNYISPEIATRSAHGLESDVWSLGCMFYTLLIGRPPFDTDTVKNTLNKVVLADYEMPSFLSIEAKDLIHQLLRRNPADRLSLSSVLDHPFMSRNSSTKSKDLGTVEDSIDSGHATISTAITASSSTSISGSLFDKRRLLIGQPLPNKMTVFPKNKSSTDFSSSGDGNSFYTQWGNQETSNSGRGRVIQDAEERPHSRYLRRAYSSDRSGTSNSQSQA
In words: PLK4 Inhibition Assay (indirect ELISA). The settings on record: 15 μM ATP, 4 nM GST-PLK4; read-out: PLK4 IC50 Ranges. On the procedure:
The protein was purified from clarified cell extracts after induction at 15° C. overnight using glutathione sepharose, gel permeation chromatography, and ion exchange (Resource Q). The resulting protein was dephosphorylated with lambda phosphatase (NEB cat #P0753), and resolved from the phosphatase using gluthione sepharose. The dephosphorylated GST-PLK4 was stored in aliquots at −80° C. until use. PLK4 activity was measured using an indirect ELISA detection system. […] Compounds were pre-incubated in the presence of enzyme for 15 minutes prior to addition of ATP and the activity remaining quantified using the above described activity assay. […] The IC50 value was determined using a non-linear 4 point logistic curve fit (XLfit4, IDBS) with the formula; (A+(B/(1+((x/C)^D)))), where A=background value, B=range, C=inflection point, D=curve fit parameter.
(An ELISA detects its analyte on a solid surface through an enzyme-linked reagent.)

Another experiment deals with T2, PLK1 (Homo sapiens, UniProt P53350).
T2 construct: purchased Invitrogen PV3501
T2 sequence (P53350 whole entry): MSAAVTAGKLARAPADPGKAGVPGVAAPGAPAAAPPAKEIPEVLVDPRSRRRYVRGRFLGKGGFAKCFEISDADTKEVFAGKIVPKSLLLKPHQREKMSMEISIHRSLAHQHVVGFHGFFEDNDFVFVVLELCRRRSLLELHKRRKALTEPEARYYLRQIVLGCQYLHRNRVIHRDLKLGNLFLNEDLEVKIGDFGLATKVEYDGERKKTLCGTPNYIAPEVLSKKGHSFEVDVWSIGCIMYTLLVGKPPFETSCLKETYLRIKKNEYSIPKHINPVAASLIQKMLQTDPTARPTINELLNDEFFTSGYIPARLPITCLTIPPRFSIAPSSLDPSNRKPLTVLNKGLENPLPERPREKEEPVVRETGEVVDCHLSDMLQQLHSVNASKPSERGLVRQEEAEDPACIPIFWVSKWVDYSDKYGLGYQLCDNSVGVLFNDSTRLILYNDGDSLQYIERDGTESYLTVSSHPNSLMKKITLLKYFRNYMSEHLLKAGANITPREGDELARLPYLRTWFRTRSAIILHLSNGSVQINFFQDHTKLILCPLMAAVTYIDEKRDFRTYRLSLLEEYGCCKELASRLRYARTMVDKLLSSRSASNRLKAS
In words: PLK1 Inhibition Assay (Z-Lyte). The settings on record: 25 μM ATP, 8 nM PLK1; read-out: PLK1 IC50 Ranges. On the procedure: PLK1 inhibition was determined using the Z-Lyte assay kit from Invitrogen (cat #PV3802). […] The % inhibition values were determined according to the manufacturer's directions and IC50 values were obtained using a non-linear 4 point logistic curve fit (XLfit4, IDBS)

The target in a further experiment is T3, Aurora B (Homo sapiens, UniProt Q96GD4).
T3 construct: purchased Invitrogen PV3970
T3 sequence (Q96GD4 whole entry): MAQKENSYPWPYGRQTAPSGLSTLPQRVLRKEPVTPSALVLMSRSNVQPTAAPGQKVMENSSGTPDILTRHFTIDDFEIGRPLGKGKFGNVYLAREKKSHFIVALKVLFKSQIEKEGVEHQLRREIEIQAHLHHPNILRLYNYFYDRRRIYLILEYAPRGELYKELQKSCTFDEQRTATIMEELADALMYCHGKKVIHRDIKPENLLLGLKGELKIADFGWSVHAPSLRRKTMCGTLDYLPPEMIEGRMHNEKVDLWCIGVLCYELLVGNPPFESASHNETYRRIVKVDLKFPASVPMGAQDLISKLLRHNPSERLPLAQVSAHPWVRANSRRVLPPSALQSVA
Briefly: Aurora B Inhibition Assay (Z-Lyte). The settings on record: 128 μM ATP, 28 nM Aurora B; read-out: Aurora B IC50 Ranges. As to the method: Aurora B inhibition was determined using the Z-Lyte assay kit from Invitrogen. The assay was performed using the recommended manufacturer's instructions with 128 μM ATP and 28 nM Aurora B (Invitrogen cat #PV3970). The % inhibition values were determined according to the manufacturer's directions and IC50 values were obtained using a non-linear 4 point logistic curve fit (XLfit4, IDBS)

Take `CC(C)NC(=O)Nc1ccc2c(c1)/C(=C\c1ccc3nn[nH]c3c1)C(=O)N2` [Example A27, (E)-1-(3-((1H-benzo[d][1,2,3]triazol-5-yl)methylene)-2-oxoindolin-5-yl)-3-isopropylurea]: the pIC50 at human PLK4 and at PLK1 was 4.30 to 5.30 throughout. With `CC(=O)Nc1ccc2c(c1)NC(=O)/C2=C/c1ccc2[nH]ncc2c1` [Example A18], the negative logarithm of the IC50 (pIC50) (commonly the negative decadic logarithm of the IC50, by convention in mol/L) at human PLK4 was more than 5.30; on PLK1, 4.30 to 5.30. For the compound `CC(=O)Nc1ccc2c(c1)NC(=O)/C2=C/c1ccc2nn[nH]c2c1` [Example A17, (E)-N-(3-((1H-benzo[d][1,2,3]triazol-5-yl)methylene)-2-oxoindolin-6-yl)acetamide], the negative logarithm of the IC50 (pIC50) at human PLK4 and at PLK1 was 4.30 to 5.30 throughout.

For `Nc1ccc2c(c1)/C(=C\c1ccc3c(/C=C/c4ccncc4)n[nH]c3c1)C(=O)N2` [Example A122, (E)-5-amino-3-((3-((E)-2-(pyridin-4-yl)vinyl)-1H-indazol-6-yl)-methylene)indolin-2-one bis(2,2,2-trifluoroacetate)], the pIC50 on human PLK4 and on Aurora B was more than 5.30 throughout.

Take `CNC(=O)c1ccc2c(c1)/C(=C\c1ccc3cn[nH]c3c1)C(=O)N2` [Example A8, (E)-3-((1H-indazol-6-yl)methylene)-N-methyl-2-oxoindoline-5-carboxamide]: the pIC50 on human PLK4 and at PLK1 was 4.30 to 5.30 in each case. In the case of `CN1C(=O)/C(=C/c2ccc3nn[nH]c3c2)c2ccccc21` [Example A33, (E)-3-((1H-benzo[d][1.2.3]triazol-5-yl)methylene)-1-methylindolin-2-one], the pIC50 at human PLK4 is 4.30 to 5.30; at PLK1, less than 4.30. For the compound `O=C1Nc2ccccc2C1=Cc1cc(/C=C/c2ccncc2)c2cn[nH]c2c1` (mixture of isomers) [Example A55, (E and Z)-3-((4-((E)-2-(pyridin-4-yl)vinyl)-1H-indazol-6-yl)methylene)indolin-2-one], the pIC50 at human PLK4 and at Aurora B was more than 5.30 each time.

Take `O=C1Nc2cc(-c3cccnc3)ccc2/C1=C\c1ccc2[nH]ncc2c1` [Example A30, (E)-3-((1H-indazol-5-yl)methylene)-6-(pyridin-3-yl)indolin-2-one]: the negative logarithm of the IC50 (pIC50) on human PLK4 is 4.30 to 5.30; at PLK1 it was less than 4.30.

Take `CN(C)CCN(C)S(=O)(=O)c1ccc2c(c1)C(=Cc1ccc3c(/C=C/c4ccncc4)n[nH]c3c1)C(=O)N2` (mixture of isomers) [Example A129, (E and Z)—N-(2-(dimethylamino)ethyl)-N-methyl-2-oxo-3-((3-((E)-2-(pyridin-4-yl)vinyl)-1H-indazol-6-yl)methylene)indoline-5-sulfonamide]: the negative logarithm of the IC50 (pIC50) on human PLK4 and at Aurora B was more than 5.30 each time. On to `CN(C)CCCNc1ccc2c(c1)C(=Cc1ccc3c(/C=C/c4ccncc4)n[nH]c3c1)C(=O)N2` (mixture of isomers) [Example A130, (E and Z)-5-(3-(dimethylamino)propylamino)-3-((3-((E)-2-(pyridin-4-yl)-vinyl)-1H-indazol-6-yl)methylene)indolin-2-one], for which the pIC50 at human PLK4 and at Aurora B was more than 5.30 in each case. Turning to `O=C1Nc2ccccc2/C1=C\c1ccc2c(/C=C/c3ccc(C(F)(F)F)cc3)n[nH]c2c1` [Example A65, (E & Z)-3-((3-((E)-4-(trifluoromethyl)styryl)-1H-indazol-6-yl)-methylene)-indolin-2-one], at human PLK4, the pIC50 is more than 5.30.

Turning to `CC(C)NC(=O)Nc1cccc2c1NC(=O)/C2=C/c1ccc2cn[nH]c2c1` [Example A48, (E)-1-(3-((1H-indazol-6-yl)methylene)-2-oxoindolin-7-yl)-3-isopropyl-urea], the pIC50 at human PLK4 was more than 5.30.

Turning to `O=C1Nc2ccccc2C1=Cc1ccc2c(-c3cnc4ccccc4c3)n[nH]c2c1` (mixture of isomers) [Example A95, (E and Z)-3-((3-(quinolin-3-yl)-1H-indazol-6-yl)methylene)indolin-2-one], the pIC50 on human PLK4 is more than 5.30. The same measure, in the same setting: in the case of `O=C1Nc2cc(-c3cccnc3)ccc2C1=Cc1ccc2cn[nH]c2c1` (mixture of isomers) [Example A28, (E and Z)-3-(3-((1H-indazol-6-yl)methylene)-2-oxoindolin-6-yl)pyridinium 2,2,2-trifluoroacetate] it was 4.30 to 5.30; in that of `COC(=O)c1cccc2c1NC(=O)C2=Cc1ccc2cn[nH]c2c1` (mixture of isomers) [Example A46, (E and Z)-methyl 3-((1H-indazol-6-yl)methylene)-2-oxoindoline-7-carboxylate], more than 5.30. `COc1ccc2c(c1)/C(=C\c1ccc3c(/C=C/c4ccc(CN(C)C)cc4)n[nH]c3c1)C(=O)N2` [Example A136a, (E)-3-((3-(4-((dimethylamino)methyl)styryl)-1H-indazol-6-yl)-methylene)-5-methoxyindolin-2-one 2,2,2-trifluoroacetate]: on Aurora B, the pIC50 was more than 5.30. For the compound `O=C1Nc2ccc(Cl)nc2/C1=C\c1ccc2cn[nH]c2c1` [Example A134, (E)-3-((1H-indazol-6-yl)methylene)-5-chloro-1H-pyrrolo[3,2-b]pyridin-2(3H)-one], the pIC50 at human PLK4 is more than 5.30. For the compound `O=C1Nc2ccccc2C1=Cc1ccc2c(/C=C/c3ccc(CN4CCOCC4)cc3)n[nH]c2c1` (mixture of isomers) [Example A154, (E and Z)-3-((3-(4-(morpholinomethyl)styryl)-1H-indazol-6-yl)-methylene)indolin-2-one], the negative logarithm of the IC50 (pIC50) on human PLK4 is more than 5.30. For the compound `O=C1Nc2c(Br)cccc2/C1=C\c1ccc2cn[nH]c2c1` [Example A44, (E)-3-((1H-indazol-6-yl)methylene)-7-bromoindolin-2-one], on human PLK4, the pIC50 was more than 5.30. On the same count and under the same terms, in the case of `O=C1Nc2ccccc2C1=Cc1ccc2c(-c3cc4ccccc4[nH]3)n[nH]c2c1` (mixture of isomers) [Example A90, (E and Z)-3-((3-(1H-indol-2-yl)-1H-indazol-6-yl)methylene)indolin-2-one] it was more than 5.30; in that of `O=C1Nc2ccccc2/C1=C\c1ccc2c(-c3nccs3)n[nH]c2c1` [Example A92, (E)-3-((3-(thiazol-2-yl)-1H-indazol-6-yl)methylene)indolin-2-one], more than 5.30. As for `O=CNc1cccc2c1NC(=O)C2=Cc1ccc2cn[nH]c2c1` (mixture of isomers) [Example A50, (E and Z)—N-(3-((1H-indazol-6-yl)methylene)-2-oxoindolin-7-yl)formamide], the negative-log IC50 (pIC50) on human PLK4 was more than 5.30.

As for `COc1ccc2c(c1)/C(=C\c1ccc3c(/C=C/c4cccc[n+]4[O-])n[nH]c3c1)C(=O)N2` [Example A88, 2-((E)-2-(6-((E)-(5-methoxy-2-oxoindolin-3-ylidene)methyl)-1H-indazol-3-yl)vinyl)pyridine 1-oxide], the pIC50 at human PLK4 and on Aurora B was more than 5.30 each time.

On to `O=C1Nc2ccc(C(F)(F)F)cc2C1=Cc1ccc2cn[nH]c2c1` (mixture of isomers) [Example A82, (E and Z)-3-((1H-indazol-6-yl)methylene)-5-(trifluoromethyl)-indolin-2-one], for which, on human PLK4, the pIC50 is more than 5.30. Regarding `O=C1Nc2ncccc2/C1=C\c1ccc2[nH]ncc2c1` [Example A68, (E)-3-((1H-indazol-5-yl)methylene)-1H-pyrrolo[2,3-b]pyridin-2(3H)-one], at human PLK4, the pIC50 was more than 5.30. Turning to `CC(C)(C)OC(=O)Nc1ccc2c(c1)/C(=C\c1ccc3c(/C=C/c4ccncc4)n[nH]c3c1)C(=O)N2` [Example A121, tert-butyl(E)-2-oxo-3-((3-((E)-2-(pyridin-4-yl)vinyl)-1H-indazol-6-yl)methylene)indolin-5-ylcarbamate], the pIC50 on human PLK4 and on Aurora B was more than 5.30 each time. For the compound `O=C1Nc2ccccc2/C1=C/c1cc(Br)c2cn[nH]c2c1` [Example A53b, (Z)-3-((4-bromo-1H-indazol-6-yl)methylene)indolin-2-one], the pIC50 at human PLK4 is more than 5.30. For `C/C(=C1\C(=O)Nc2ccccc21)c1ccc2cn[nH]c2c1` [Example A51, (E)-3-(1-(1H-indazol-6-yl)ethylidene)indolin-2-one], the pIC50 on human PLK4 is more than 5.30; at Aurora B it was 4.30 to 5.30. Consider `CN1CCN(C(=O)/C=C/c2n[nH]c3cc(C=C4C(=O)Nc5ccccc54)ccc23)CC1` (mixture of isomers) [Example A66, (E and Z)-3-((3-((E)-3-(4-methylpiperazin-1-yl)-3-oxoprop-1-enyl)-1H-indazol-6-yl)methylene)indolin-2-one], for which the pIC50 at human PLK4 is more than 5.30.

Values taken from patent US8765748B2, “Indazolyl, benzimidazolyl, benzotriazolyl substituted indolinone derivatives as kinase inhibitors useful in the treatment of cancer” (University Health Network, priority 2007, dated 2014).
